Assay results: the NIST ThermoML archive (doi:10.1021/je401036f)
± gives the expanded uncertainty stated by the source.

Test: xn = mol fraction of the nth substance listed
Conditions: 101 kPa, Liquid; for viscosity: Concentric cylinders viscometry; for mass density: Vibrating tube method

A viscosity (288.15 K, x1 = 0.1003) of 5.068 ± 0.16 mPa·s, a viscosity (288.15 K, x1 = 0.2005) of 5.97 ± 0.18 mPa·s and a viscosity (288.15 K, x1 = 0.3) of 7.261 ± 0.22 mPa·s were found for `CC(O)CN` (stereo not given) [1-amino-2-propanol] + CCC(C)O in this work. It also gave a viscosity (288.15 K, x1 = 0.3999) of 9.219 ± 0.29 mPa·s, a viscosity (288.15 K, x1 = 0.5) of 11.68 ± 0.36 mPa·s and a viscosity (288.15 K, x1 = 0.6001) of 14.95 ± 0.47 mPa·s. The viscosity (288.15 K, x1 = 0.7) was 19.39 ± 0.61 mPa·s, the viscosity (288.15 K, x1 = 0.8) was 25.16 ± 0.79 mPa·s and the viscosity (288.15 K, x1 = 0.8999) was 32.94 ± 1 mPa·s. The viscosity (288.15 K, x1 = 1) was 43.7 ± 1.4 mPa·s, the mass density (288.15 K, x1 = 0.1003) was 823.697 ± 0.27 kg/m3 and the mass density (288.15 K, x1 = 0.2005) was 837.759 ± 0.3 kg/m3. It also gave a mass density (288.15 K, x1 = 0.3) of 852.257 ± 0.34 kg/m3, a mass density (288.15 K, x1 = 0.3999) of 867.392 ± 0.38 kg/m3 and a mass density (288.15 K, x1 = 0.5) of 882.695 ± 0.43 kg/m3. The mass density (288.15 K, x1 = 0.6001) was 898.243 ± 0.48 kg/m3, the mass density (288.15 K, x1 = 0.7) was 914.159 ± 0.55 kg/m3 and the mass density (288.15 K, x1 = 0.8) was 930.494 ± 0.62 kg/m3. The mass density (288.15 K, x1 = 0.8999) was 947.198 ± 0.7 kg/m3, the mass density (288.15 K, x1 = 1) was 964.544 ± 0.8 kg/m3 and the viscosity (293.15 K, x1 = 0.1003) was 4.16 ± 0.13 mPa·s. For the same compound, the viscosity (293.15 K, x1 = 0.2005) was 4.888 ± 0.15 mPa·s, the viscosity (293.15 K, x1 = 0.3) was 5.949 ± 0.18 mPa·s and the viscosity (293.15 K, x1 = 0.3999) was 7.373 ± 0.23 mPa·s. For the same compound, the viscosity (293.15 K, x1 = 0.5) was 9.189 ± 0.29 mPa·s, the viscosity (293.15 K, x1 = 0.6001) was 11.6 ± 0.36 mPa·s and the viscosity (293.15 K, x1 = 0.7) was 14.8 ± 0.46 mPa·s. The viscosity (293.15 K, x1 = 0.8) was 18.77 ± 0.59 mPa·s, the viscosity (293.15 K, x1 = 0.8999) was 24.3 ± 0.77 mPa·s and the viscosity (293.15 K, x1 = 1) was 31.68 ± 1 mPa·s. For the same compound, the mass density (293.15 K, x1 = 0.1003) was 819.706 ± 0.26 kg/m3, the mass density (293.15 K, x1 = 0.2005) was 833.763 ± 0.3 kg/m3 and the mass density (293.15 K, x1 = 0.3) was 848.265 ± 0.33 kg/m3. It also gave a mass density (293.15 K, x1 = 0.3999) of 863.403 ± 0.38 kg/m3, a mass density (293.15 K, x1 = 0.5) of 878.701 ± 0.43 kg/m3 and a mass density (293.15 K, x1 = 0.6001) of 894.252 ± 0.48 kg/m3. For the same compound, the mass density (293.15 K, x1 = 0.7) was 910.183 ± 0.55 kg/m3, the mass density (293.15 K, x1 = 0.8) was 926.524 ± 0.62 kg/m3 and the mass density (293.15 K, x1 = 0.8999) was 943.272 ± 0.7 kg/m3. The mass density (293.15 K, x1 = 1) was 960.598 ± 0.79 kg/m3, the viscosity (298.15 K, x1 = 0.1003) was 3.45 ± 0.11 mPa·s and the viscosity (298.15 K, x1 = 0.2005) was 4.048 ± 0.12 mPa·s. It also gave a viscosity (298.15 K, x1 = 0.3) of 4.884 ± 0.15 mPa·s, a viscosity (298.15 K, x1 = 0.3999) of 5.96 ± 0.18 mPa·s and a viscosity (298.15 K, x1 = 0.5) of 7.338 ± 0.23 mPa·s. The viscosity (298.15 K, x1 = 0.6001) was 9.121 ± 0.28 mPa·s, the viscosity (298.15 K, x1 = 0.7) was 11.45 ± 0.36 mPa·s and the viscosity (298.15 K, x1 = 0.8) was 14.41 ± 0.45 mPa·s. The viscosity (298.15 K, x1 = 0.8999) was 18.35 ± 0.58 mPa·s, the viscosity (298.15 K, x1 = 1) was 23.54 ± 0.75 mPa·s and the mass density (298.15 K, x1 = 0.1003) was 815.665 ± 0.26 kg/m3. The mass density (298.15 K, x1 = 0.2005) was 829.72 ± 0.3 kg/m3, the mass density (298.15 K, x1 = 0.3) was 844.235 ± 0.33 kg/m3 and the mass density (298.15 K, x1 = 0.3999) was 859.38 ± 0.38 kg/m3. For the same compound, the mass density (298.15 K, x1 = 0.5) was 874.691 ± 0.42 kg/m3, the mass density (298.15 K, x1 = 0.6001) was 890.255 ± 0.48 kg/m3 and the mass density (298.15 K, x1 = 0.7) was 906.21 ± 0.54 kg/m3. It also gave a mass density (298.15 K, x1 = 0.8) of 922.526 ± 0.62 kg/m3, a mass density (298.15 K, x1 = 0.8999) of 939.29 ± 0.7 kg/m3 and a mass density (298.15 K, x1 = 1) of 956.618 ± 0.79 kg/m3. It also gave a viscosity (303.15 K, x1 = 0.1003) of 2.889 ± 0.089 mPa·s, a viscosity (303.15 K, x1 = 0.2005) of 3.378 ± 0.1 mPa·s and a viscosity (303.15 K, x1 = 0.3) of 4.059 ± 0.13 mPa·s. For the same compound, the viscosity (303.15 K, x1 = 0.3999) was 4.898 ± 0.15 mPa·s, the viscosity (303.15 K, x1 = 0.5) was 5.963 ± 0.19 mPa·s and the viscosity (303.15 K, x1 = 0.6001) was 7.316 ± 0.23 mPa·s. It also gave a viscosity (303.15 K, x1 = 0.7) of 9.136 ± 0.29 mPa·s, a viscosity (303.15 K, x1 = 0.8) of 11.31 ± 0.36 mPa·s and a viscosity (303.15 K, x1 = 0.8999) of 14.16 ± 0.45 mPa·s. The viscosity (303.15 K, x1 = 1) was 17.89 ± 0.57 mPa·s, the mass density (303.15 K, x1 = 0.1003) was 811.527 ± 0.27 kg/m3 and the mass density (303.15 K, x1 = 0.2005) was 825.623 ± 0.3 kg/m3. For the same compound, the mass density (303.15 K, x1 = 0.3) was 840.158 ± 0.33 kg/m3, the mass density (303.15 K, x1 = 0.3999) was 855.316 ± 0.38 kg/m3 and the mass density (303.15 K, x1 = 0.5) was 870.629 ± 0.42 kg/m3. The mass density (303.15 K, x1 = 0.6001) was 886.197 ± 0.48 kg/m3, the mass density (303.15 K, x1 = 0.7) was 902.141 ± 0.54 kg/m3 and the mass density (303.15 K, x1 = 0.8) was 918.502 ± 0.61 kg/m3. It also gave a mass density (303.15 K, x1 = 0.8999) of 935.275 ± 0.69 kg/m3, a mass density (303.15 K, x1 = 1) of 952.612 ± 0.78 kg/m3 and a viscosity (308.15 K, x1 = 0.1003) of 2.444 ± 0.075 mPa·s. The viscosity (308.15 K, x1 = 0.2005) was 2.86 ± 0.088 mPa·s, the viscosity (308.15 K, x1 = 0.3) was 3.407 ± 0.11 mPa·s and the viscosity (308.15 K, x1 = 0.3999) was 4.08 ± 0.13 mPa·s. The viscosity (308.15 K, x1 = 0.5) was 4.929 ± 0.15 mPa·s, the viscosity (308.15 K, x1 = 0.6001) was 5.962 ± 0.19 mPa·s and the viscosity (308.15 K, x1 = 0.7) was 7.358 ± 0.23 mPa·s. For the same compound, the viscosity (308.15 K, x1 = 0.8) was 9.005 ± 0.28 mPa·s, the viscosity (308.15 K, x1 = 0.8999) was 11.12 ± 0.35 mPa·s and the viscosity (308.15 K, x1 = 1) was 13.88 ± 0.44 mPa·s. For the same compound, the mass density (308.15 K, x1 = 0.1003) was 807.298 ± 0.27 kg/m3, the mass density (308.15 K, x1 = 0.2005) was 821.466 ± 0.3 kg/m3 and the mass density (308.15 K, x1 = 0.3) was 836.03 ± 0.33 kg/m3. It also gave a mass density (308.15 K, x1 = 0.3999) of 851.209 ± 0.37 kg/m3, a mass density (308.15 K, x1 = 0.5) of 866.532 ± 0.42 kg/m3 and a mass density (308.15 K, x1 = 0.6001) of 882.111 ± 0.48 kg/m3. The mass density (308.15 K, x1 = 0.7) was 898.074 ± 0.54 kg/m3, the mass density (308.15 K, x1 = 0.8) was 914.445 ± 0.61 kg/m3 and the mass density (308.15 K, x1 = 0.8999) was 931.229 ± 0.69 kg/m3. It also gave a mass density (308.15 K, x1 = 1) of 948.577 ± 0.78 kg/m3.
